In data set [1] the test system is tryptophane-labeled 3LA mutant CTH peptide. Nature of the data set: Label-free MicroScale Thermophoresis (MST), 3LA mutant CTH peptide. In kind it is binding, Arabidopsis thaliana. Particulars: 3 nM to 100 µM, 750 nM tryptophane-labeled peptide, PBS pH 7.5, 1 % DMSO, 0.1 % Pluronic, 25 °C, technical duplicates. The protocol: (§1) For MST experiments, peptides corresponding to the consensus helical sequence (RSQRVDTLLHHMLGDEL) and the 3LA mutant (RSQRVDTAAHHMAGDEL) were synthesized (Peptide Speciality Laboratories GmbH, Heidelberg, Germany). To allow for label-free MST binding experiments, additional wild type and mutant peptides were synthesized, which were C-terminally extended by addition of two tryptophanes and a short linker (AAWW).
(§2) Labelfree MicroScale Thermophoresis binding experiments were performed in cooperation with the 2bind GmbH (Regensburg, Germany), using 750 nM tryptophane containing target peptide in PBS pH 7.5, 1 % DMSO, 0.1 % Pluronic with varied concentrations of the ligand peptide at 80 % MST power, 100 % LED power in hydrophilic zero background capillaries on a Monolith NT.labelfree device at 25 °C (NanoTemper Technologies, Munich, Germany). Normalized fluorescence data sets (WT peptide and MT peptide) were analyzed in the thermophoresis and temperature jump. For determination of the binding affinity (K D) of the wild type peptide, the recorded fluorescence was normalized to the fraction bound (0 = unbound, 1 = bound), and fitted using the K D fit formula derived from the law of mass action. Technical duplicates were performed for each experimental setup.

The target of data set [2] is wild type peptide labeled by tryptophane (Arabidopsis thaliana, UniProt Q94KI8). Nature of the data set: Label-free MicroScale Thermophoresis (MST), CTH wild type peptide. In kind it is binding. The following applies: 750 nM tryptophane-containing target peptide, ligand 3 nM to 100 µM, PBS pH 7.5, 1 % DMSO, 0.1 % Pluronic, 25 °C, 80 % MST power, 100 % LED power, technical duplicates, read-out: dissociation constant (K D) of CTH homo-dimerization. The protocol: as §1, §2
For orientation: In MST a laser heats a spot of the sample, and binding alters the fluorescence response.

Data set [3] concerns the molecule itself. The data set can be described thus: MST; label-free MST; 750 nM tryptophane-containing target peptide in PBS pH 7.5, 1 % DMSO, 0.1 % Pluronic, unlabeled ligand peptide varied from 3 nM to 100 µM, 25 °C, Monolith NT.labelfree; monomer to dimer.

Residues, ends and D or L forms follow the SMILES beside them.

Take “RSQRVDTAAHHMAGDEL [3LA mutant, 3LA mutant CTH peptide …]”: the results for the “interaction in MST” value in data set [1], in data set [1] (listed as 3-LA peptide) and in data set [1] (listed as CTH-3LA) were “no interaction was measured”, “no interactions” and “lack of dimer formation”, respectively.

Take `CSCC[C@H](NC(=O)[C@H](Cc1c[nH]cn1)NC(=O)[C@H](Cc1c[nH]cn1)NC(=O)[C@H](CC(C)C)NC(=O)[C@H](CC(C)C)NC(=O)[C@@H](NC(=O)[C@H](CC(=O)O)NC(=O)[C@@H](NC(=O)[C@H](CCCNC(=N)N)NC(=O)[C@H](CCC(N)=O)NC(=O)[C@H](CO)NC(=O)[C@@H](N)CCCNC(=N)N)C(C)C)[C@@H](C)O)C(=O)N[C@@H](CC(C)C)C(=O)NCC(=O)N[C@@H](CC(=O)O)C(=O)N[C@@H](CCC(=O)O)C(=O)N[C@@H](CC(C)C)C(=O)O` [CTH peptide] (H-RSQRVDTLLHHMLGDEL-OH): the Kd in data set [2] was 3.85 ± 1.1 µM.

B1: Synthetic wild type CTH peptide (consensus C-terminal helix of TPC1, residues 707-723) (peptide)
peptide: RSQRVDTLLHHMLGDEL
notes: The two copies are written as one molecule; also called WT peptide; wild type peptide; source: synthetic peptide (Peptide Speciality Laboratories GmbH); not shown: AAWW (short linker and two tryptophans; only on the target copy held at 750 nM), C-terminal, kept
As for B1, in data set [3], the Kd is 3.85 ± 1.1 µM.
